# From US20250090729A1, “Methods and Products to Detect, Minimize and Treat TRAP-Related Tissue Reactions and Tissue Injury Associated With Medical Devices” (priority 2022, published 2025)
# Entries after “also recorded” stand apart in the source; their conditions may differ.
# Key:
# [1] = tested on: porcine skin; assay: In vivo TRAP formation at infusion/injection sites in swine skin (H&E histology); details: infused continuously over a 5- to 7-day period
# Description: The presence of the purple web appearance is indicated by the black arrows.
# White area in the center of the image is the previous location of the injection port.
# [2] = tested on: human neutrophils; assay: In vitro TRAP formation by human blood neutrophils (PMNs) cultured with test agents; format: cell-based; details: for TRAP formation in human neutrophils: FIG. 12, human blood neutrophils cultured with agent; for TRAP formation at higher dilution than 1/5: PMNs; for TRAP formation at 1/5 dilution: PMNs of 3 donors, 4 hr timeline, vs negative control
# Method: From left to right and top to bottom (A)-(F), media only (A) and PMA (B), a known inducer of TRAPS in human neutrophils, present positive control.
# PMA=phorbol myristate acetate; Insulin is Humalog (Lilly); LPS is a bacterial endotoxin (known inducers of TRAPs.
# Green color (light color in grayscale) indicates the existence of TRAPs. In each slide set, the upper left slide is the control with media only. The upper right slide is Humalog insulin in media at 1/5 dilution (0.6 mg m-cresol/ml, with 0.6 mg/ml of insulin), PMA concentrations are in ng/ml and the lower right slide is m-cresol at 1/5 dilution (0.6 mg/ml of m-cresol). In this study, the media was RPMI 1640 (phenol free).
# In these examples, human blood neutrophils were placed in a culture dish+/−sensors in vitro. […] Brightfield refers to the use of non-fluorescent white light (78a). […] In FIG. 79, neutrophils were added to tissue culture dishes that contained a sensor (commercial type #1) to see if the sensor could directly trigger neutrophil death and TRAP release which we detect with fluorescent dyes like sytox green. FIG. 79a-c had no neutrophils added to the sensors. In FIG. 79d-f neutrophils were added. The sytox green binds to DNA, and fluoresces green in color photo, or white in black and white photos. […] “Merged” refers to photos in which the non-fluorescent (brightfield) and fluorescent photos are merged into a single photo FIG. 79c.
smiles,measurement,setting,value
Cc1cccc(O)c1 [m-cresol],TRAPS in swine tissue,[1],presence of TRAPS
same,TRAP formation in human neutrophils,[2],trigger TRAP formation
same,TRAPs from 120 minutes to 150 minutes,"[2]; FIGS. 60E-60F, 1/5 dilution (0.6 mg/ml m-cresol)",significant increase in the presence of TRAPs
same,number and size of TRAPs from 180 minutes to 240 minutes,"[2]; FIGS. 60G-60I, 1/5 dilution",remained relatively stable
same,TRAP formation at higher dilution than 1/5,[2],weak to no TRAP formation
same,TRAP formation at 1/5 dilution,[2],strong
"CCCCCCCCCCCCCC(=O)O[C@@H]1[C@@H](C)[C@@]2(O)[C@@H](C=C(CO)C[C@]3(O)C(=O)C(C)=C[C@@H]23)[C@@H]2C(C)(C)[C@]12OC(C)=O [PMA, phorbol myristate acetate]",TRAPs at 30 minutes,"[2]; FIG. 60B, human PMNs, RPMI 1640",presence of TRAPs
same,TRAPs at 60 minutes,"[2]; FIG. 60C, Humalog insulin 1/5 dilution",significant TRAPs
same,TRAP formation in PMNs of 3 donors,"[2]; dilution not specified, positive controls and insulin fibrils lacking PP",trigger TRAP formation; also recorded: triggered TRAPs
same,time after exposure until TRAPs are triggered,"[2]; human PMNs, commercial insulin and m-cresol at 1/5 dilution",≤ 60 min
"CNc1ccc2oc(C[C@H]3O[C@@]4(CC[C@H]3C)O[C@H]([C@H](C)C(=O)c3ccc[nH]3)[C@H](C)C[C@H]4C)nc2c1C(=O)O [A23187, calcimycin]","TRAPs in neutrophils, positive control","[2]; FIG. 77 d-f, human neutrophils in culture dish",triggers TRAPs
Oc1ccccc1 [phenol],TRAP formation in human neutrophils,[2],trigger TRAP formation
same,TRAP formation at higher dilution than 1/5,[2],weak to no TRAP formation
same,TRAP formation at 1/5 dilution,[2],triggered TRAP formation
same,TRAP formation at 1/5 dilution,[2]; listed as Phenol,strong traps
